Data set [1] has as its system 3T3-L1. Put plainly: Hypoglycemic activity in mouse 3T3L1 cells assessed as increase in glucose consumption at 50 ug/ml after 24 hrs by 2-deoxyglucose uptake assay.
Data set [2] concerns 3T3-L1. The data set is described as follows: Hypoglycemic activity in mouse 3T3L1 cells assessed as increase in glucose consumption at 50 ug/ml after 24 hrs by 2-deoxyglucose uptake assay. The data set is classed as functional, cell-based.
Data set [3] has as its system 3T3-L1. Put plainly: Hypoglycemic activity in mouse 3T3L1 cells assessed as increase in glucose consumption at 12.5 ug/ml after 24 hrs by 2-deoxyglucose uptake assay. Format: functional, cell-based.
Data set [4] concerns 3T3-L1. Put plainly: Effect on lipid accumulation in mouse 3T3L1 cells at 20 ug/ml for 7 days by Oil Red O dye. Format: functional, cell-based.
The test system of data set [5] is 3T3-L1. The data set is described as follows: Hypoglycemic activity in mouse 3T3L1 cells assessed as increase in glucose consumption at 25 ug/ml after 24 hrs by 2-deoxyglucose uptake assay. Format: functional, cell-based.
The nature of data set [6]: Antioxidant activity assessed as DPPH radical scavenging activity. The data set is classed as physicochemical.
Data set [7] in a line: Antioxidant activity assessed as ABTS radical scavenging activity. The data set is classed as physicochemical.

Values after ≈ are worked out from the molar mass of the structure shown. Active and inactive are the calls of the source. No cut-off for these calls is given here.

The source of these data is ChEMBL document CHEMBL3352648, “Bioactive constituents of Cirsium japonicum var. australe” (J Nat Prod, 2014).

Consider `O=c1cc(-c2ccc(O)cc2)oc2cc(O)cc(O)c12`, for which, in the data set with 3T3-L1 [1], the outcome was inactive.

Consider `C=CCCCCCC(O)C(O)C(O)C#CC#CCCC` (stereo not drawn), for which the outcome with 3T3-L1 [2], in the data set with 3T3-L1 [3] and with 3T3-L1 [5] was Active. Also, the outcome in the data set with 3T3-L1 [4] was inactive.

As for `CCOC(=O)/C=C/c1ccc(O)c(O)c1` [ETHYL CAFFEATE], the result in the data set with 3T3-L1 [2] was Active. The concentration for a half-maximal effect (EC50) – broadly, the midpoint of the concentration-response curve – worked out at 0.18 mg/L (≈ 0.864 µM) in data set [6] and 0.19 mg/L (≈ 0.913 µM) in data set [7].
